# Patent EP0185346A2, “Imidazo derivatives, their preparation and medicaments containing these compounds” (Dr. Karl Thomae GmbH, priority 1984, dated 1986)
# Tested on: despinalisierten Meerschweinchen
# Assay: Positive inotropic effect in despinalised guinea pigs (LV-dp/dtmax, i.v. injection)
# Assay type: in vivo
# Details: Cavia porcellus, iv; 1 mg/kg i.v.; mean values, each substance tested in 3 despinalised guinea pigs; read-out: Zunahme in LV-dp/dtmax
# Text: Bestimmung der positiv inotropen Wirkung an despinalisierten Meerschweinchen
# Die Untersuchungen wurden an despinalisierten Meerschweinchen durchgeführt. Die Tiere wurden mit 50 % 02 + 50 % N2 beatmet. Der arterielle Blutdruck wurde in der rechten Arteria Carotis mit einem Bell and Howell Druckwandler (4-327-1) gemessen. Für die Erfassung der positiv inotropen Wirkung wurde mit einem Kathetertipmanometer (Millar PR-249) der Druck in dem linken Ventrikel (LV) gemessen. Mittels eines Differenzierers wurde LV-dp/dtmax gewonnen. Die zu untersuchenden Substanzen wurden in eine Vena jugularis injiziert. Als Lösungsmittel diente 0,9 % NaCl+Polydiol 200 (1:1).
# Jede Substanz wurde an 3 Meerschweinchen überprüft. Die Dosen waren 0,1 - 3 mg/kg i.v.. Die nachfolgende Tabelle enthält die Mittelwerte bei 1 mg/kg i.v..
row,Structure (SMILES),change in vivo at 1 mg/kg [%]
1,CN(C)S(=O)(=O)c1ccc(-c2cn3ccc(=O)[nH]c3n2)cc1 [Substanz A],32
2,"COc1ccc(-c2cn3cc[nH]c(=O)c3n2)cc1 [Substanz B, 2-(4-Methoxy-phenyl)-7H-imidazo[1,2-a]pyrazin-8-on]",45
3,"COc1ccc(-c2cn3c(=O)[nH]c(=O)[nH]c3n2)cc1 [Substanz C, 7-(4-Methoxy-phenyl)-1H,3H-imidazo[1,2-a][1.3.5]triazin-2,4-dion]",86
4,"COc1cc(OS(C)(=O)=O)ccc1-c1cn2ccc(=O)[nH]c2n1 [Substanz D, 2-(2-Methoxy-4-methylsulfonyloxy-phenyl)-8H-imidazo-[l,2-a]pyrimidin-7-on]",63
5,"COc1cc(C#N)ccc1-c1cn2ccc(=O)[nH]c2n1 [Substanz E, 2-(2-Methoxy-4-cyano-phenyl)-8H-imidazo[1,2-a]pyrimidin-7-on]",44
6,"COc1cc(S(=O)(=O)N(C)C)ccc1-c1cn2ccc(=O)[nH]c2n1 [Substanz F, 2-(2-Methoxy-4-dimethylaminosulfonyl-phenyl)-8H-imidazo-[1,2-a]pyrimidin-7-on]",47
7,"CNS(=O)(=O)c1ccc(-c2cn3ccc(=O)[nH]c3n2)c(OC)c1 [Substanz G, 2-(2-Methoxy-4-methylaminosulfonyl-phenyl)-8H-imidazo-[1,2-a]pyrimidin-7-on]",75
8,"COc1cc(C(=O)N(C)C)ccc1-c1cn2ccc(=O)[nH]c2n1 [Substanz H, 2-(2-Methoxy-4-dimethylaminocarbonyl-phenyl)-8H-imidazo-[l,2-a]pyrimidin-7-on]",33
9,"COc1cc(OS(C)(=O)=O)ccc1-c1cn2cc[nH]c(=O)c2n1 [Substanz I, 2-(2-Methoxy-4-methylsulfonyloxy-phenyl)-7H-imidazo-[1,2-a]pyrazin-8-on]",98
